Calls of active or inactive are those of the source. The rule behind the calls is not given here.
Tested on: GENE-TOX genotoxicity assays, various organisms and cells
Assay: GENE-TOX mutagenicity studies
Settings: for call: Assay Type: In vivo carcinogenicity studies
[1] = Species/Cell Type: Nonhuman, Assay Type: Sister-chromatid exchange (SCE) in vitro, Assay Code: SC2T, Evaluation Type: Evaluation B (Post-1980)
[2] = Species/Cell Type: Bacillus subtilis (H17 vs M45), Assay Type: Rec-assay, spot test, DNA effects (bacterial DNA repair), Assay Code: REW+, Evaluation Type: Evaluation A (Pre-1980)
[3] = Species/Cell Type: Salmonella typhimurium (one or more of the five standard strains: TA98, TA100, TA1535, TA1537, and TA1538), Assay Type: Histidine reverse gene mutation, Ames assay, Assay Code: SAL+, Evaluation Type: Evaluation A (Pre-1980)
[4] = Species/Cell Type: Chinese hamster ovary (CHO) cells, Assay Type: Forward gene mutation at the HPRT locus, Assay Code: CHO+, Evaluation Type: Evaluation B (Post-1980)
[5] = Species/Cell Type: Human, Assay Type: Sister-chromatid exchange (SCE) in vitro, Assay Code: SC1+D, Dose Response: With dose response, Evaluation Type: Evaluation B (Post-1980)
[6] = Species/Cell Type: Mammalian polychromatic erythrocytes, Assay Type: Micronucleus test, chromosome aberrations, Assay Code: MNT+, Evaluation Type: Evaluation B (Post-1980)
[7] = Species/Cell Type: Nonhuman, Assay Type: Sister-chromatid exchange (SCE) in vitro, Assay Code: SC2+, Evaluation Type: Evaluation B (Post-1980)
[8] = Species/Cell Type: Mammalian polychromatic erythrocytes, Assay Type: Micronucleus test, chromosome aberrations, Assay Code: MNTT, Evaluation Type: Evaluation B (Post-1980)
[9] = Species/Cell Type: Drosophila melanogaster, Assay Type: Sex-linked recessive lethal gene mutation, Assay Code: SRL-, Evaluation Type: Evaluation A (Pre-1980)
[10] = Species/Cell Type: Escherichia coli polA (W3119 vs P3478), Assay Type: Rec-assay, DNA effects (bacterial DNA repair), Assay Code: RE1T, Evaluation Type: Evaluation A (Pre-1980)
[11] = Species/Cell Type: Nonhuman, Assay Code: CCGT, Evaluation Type: Evaluation A (Pre-1980)
[12] = Species/Cell Type: Nonhuman, Assay Code: CCG+, Evaluation Type: Evaluation A (Pre-1980)
[13] = Species/Cell Type: Salmonella typhimurium (one or more of the five standard strains: TA98, TA100, TA1535, TA1537, and TA1538), Assay Type: Histidine reverse gene mutation, Ames assay, Assay Code: SALT, Evaluation Type: Evaluation A (Pre-1980)
[14] = Species/Cell Type: Drosophila melanogaster, Assay Type: Sex-linked recessive lethal gene mutation, Assay Code: SRLT, Evaluation Type: Evaluation A (Pre-1980)

## C[As+](C)(C)CC(=O)[O-]
[1]
  mutagenic call: no conclusion

## CC(=O)[O-].CC(=O)[O-].O.O.O.[Pb+2]
Species/Cell Type: Allium cepa, Assay Type: Chromosome aberrations, Assay Code: ALC+D, Dose Response: With dose response, Evaluation Type: Evaluation A (Pre-1980)
  mutagenic call: active; positive
[1]
  mutagenic call: no conclusion

## O=[N+]([O-])c1ccc(-c2cscn2)o1
[2]
  mutagenic call: active; positive
Species/Cell Type: Nonhuman, Assay Code: CCG+L, Evaluation Type: Evaluation A (Pre-1980)
  call: active; positive
[3]
  mutagenic call: active; positive
Species/Cell Type: Syrian hamster embryo (SHE) cells, Assay Type: Cell transformation, clonal assay, Assay Code: CTC-, Evaluation Type: Evaluation A (Pre-1980)
  mutagenic call: inactive; negative

## [O]=[Cr](=[O])([OH])[O][Cr](=[O])(=[O])[OH]
[2]
  mutagenic call: active; positive
[4]
  mutagenic call: active; positive
Species/Cell Type: Human lymphocytes, Assay Type: Sister-chromatid exchange (SCE) in vitro, Assay Code: SCL+D, Dose Response: With dose response, Evaluation Type: Evaluation B (Post-1980)
  mutagenic call: active; positive
[5]
  mutagenic call: active; positive
[6]
  mutagenic call: active; positive
Species/Cell Type: Nonhuman, Assay Type: Chromosome aberrations in vitro, Assay Code: CY&+, Evaluation Type: Evaluation A (Pre-1980)
  mutagenic call: active; positive
[7]
  mutagenic call: active; positive
Species/Cell Type: Nonhuman, Assay Type: Sister-chromatid exchange (SCE) in vitro, Assay Code: SC2+D, Dose Response: With dose response, Evaluation Type: Evaluation B (Post-1980)
  mutagenic call: active; positive
[3]
  mutagenic call: active; positive
Species/Cell Type: Syrian hamster embryo (SHE) cells, Assay Type: Cell transformation, clonal assay, Assay Code: CTC+, Evaluation Type: Evaluation A (Pre-1980)
  mutagenic call: active; positive

## O=S(O)S(=O)(=O)O
[8]
  mutagenic call: no conclusion
Species/Cell Type: Nonhuman, Assay Type: Sister-chromatid exchange (SCE) in vitro, Assay Code: SC2T, Evaluation Type: Evaluation A (Pre-1980)
  mutagenic call: no conclusion
Species/Cell Type: Nonhuman, Assay Type: Sister-chromatid exchange (SCE) in vivo, Assay Code: SC3-, Evaluation Type: Evaluation B (Post-1980)
  mutagenic call: inactive; negative

## O=C(c1ccc2c(c1)OCO2)C1CO1 (configuration not stated)
[3]
  mutagenic call: active; positive

## NC1CCCCC1
Species/Cell Type: Drosophila melanogaster, Assay Type: Aneuploidy, whole sex chromosome loss, chromosome aberrations, Assay Code: DACT, Evaluation Type: Evaluation A (Pre-1980)
  mutagenic call: no conclusion
[9]
  mutagenic call: inactive; negative
Species/Cell Type: Drosophila melanogaster, Sex: Male, Assay Type: Heritable translocation test, chromosome aberrations, Assay Code: DHT-, Evaluation Type: Evaluation A (Pre-1980)
  mutagenic call: inactive; negative
[10]
  mutagenic call: no conclusion
Species/Cell Type: Human lymphocytes or leukocytes, Assay Type: Chromosome aberrations in vitro, Assay Code: CY7-, Evaluation Type: Evaluation A (Pre-1980)
  mutagenic call: inactive; negative
Species/Cell Type: Mammalian germ cells, Sex: Male, Assay Type: Chromosome aberrations in vivo, Assay Code: CY9+, Evaluation Type: Evaluation A (Pre-1980)
  mutagenic call: active; positive
Species/Cell Type: Nonhuman bone marrow, Assay Type: Chromosome aberrations, in vivo, Assay Code: CY#-, Evaluation Type: Evaluation A (Pre-1980)
  mutagenic call: inactive; negative
Species/Cell Type: Nonhuman, Assay Type: Chromosome aberrations in vitro, Assay Code: CY&+D, Dose Response: With dose response, Evaluation Type: Evaluation A (Pre-1980)
  mutagenic call: active; positive
[11]
  call: no conclusion
Species/Cell Type: Rat, Sex: Male, Assay Type: Sperm morphology, Assay Code: SPA+, Evaluation Type: Evaluation A (Pre-1980)
  mutagenic call: active; positive
Species/Cell Type: Rodents, Sex: Male, Assay Type: Dominant lethal test, Assay Code: DLT-, Evaluation Type: Evaluation A (Pre-1980)
  mutagenic call: inactive; negative
Species/Cell Type: Rodents, Sex: Male, Assay Type: Dominant lethal test, Assay Code: DLTT, Evaluation Type: Evaluation A (Pre-1980)
  mutagenic call: no conclusion
Species/Cell Type: Salmonella typhimurium, Serratia marcesens, Assay Type: Forward and reverse gene mutation, host-mediated assay, Assay Code: HM2T, Evaluation Type: Evaluation A (Pre-1980)
  mutagenic call: no conclusion
Species/Cell Type: Syrian hamster embryo (SA7/SHE) cells, Assay Type: Cell transformation, viral enhanced, Assay Code: CT7+, Evaluation Type: Evaluation A (Pre-1980)
  mutagenic call: active; positive

## O=NN1CCNCC1
Species/Cell Type: Salmonella typhimurium, Assay Type: Forward and reverse gene mutation, host-mediated assay, Assay Code: HMA+, Evaluation Type: Evaluation A (Pre-1980)
  mutagenic call: active; positive

## COc1ccc([N+](=O)[O-])cc1N
[12]
  call: active; positive
[3]
  mutagenic call: active; positive

## CCCCC/C=C\C/C=C\C/C=C\C/C=C\CCCC(=O)O
Species/Cell Type: Human, Assay Type: Sister-chromatid exchange (SCE) in vitro, Assay Code: SC1T, Evaluation Type: Evaluation B (Post-1980)
  mutagenic call: no conclusion
[8]
  mutagenic call: no conclusion
[1]
  mutagenic call: no conclusion

## COc1ccc2c3c([nH]c2c1)C(C)=NCC3
[13]
  mutagenic call: no conclusion

## CN(C)/C=N/c1nnc(/C=C/c2ccc([N+](=O)[O-])o2)o1
[12]
  call: active; positive
[3]
  mutagenic call: active; positive

## Cc1cc2ccccc2c2ccc3c(F)cccc3c12
[13]
  mutagenic call: no conclusion

## OC(c1ccc2c(c1)OCO2)C1CO1 (configuration not stated)
[14]
  mutagenic call: no conclusion
[3]
  mutagenic call: active; positive

## CNC(=O)/C=C(\C)OP(=O)(OC)OC
Species/Cell Type: Bacillus subtilis (H17 vs M45), Assay Type: Rec-assay, spot test, DNA effects (bacterial DNA repair), Assay Code: REWT, Evaluation Type: Evaluation A (Pre-1980)
  mutagenic call: no conclusion
[9]
  mutagenic call: inactive; negative
Species/Cell Type: Escherichia coli WP2 UVRA, Assay Type: Tryptophan reverse gene mutation, Assay Code: WPU-*, Activation: With metabolic activation, Evaluation Type: Evaluation A (Pre-1980)
  mutagenic call: inactive; negative
[10]
  mutagenic call: no conclusion
Species/Cell Type: Human diploid fibroblasts, Assay Type: Unscheduled DNA synthesis (UDS) in vitro, DNA effects, Assay Code: UDH+, Evaluation Type: Evaluation A (Pre-1980)
  mutagenic call: active; positive
[5]
  mutagenic call: active; positive
[6]
  mutagenic call: active; positive
Species/Cell Type: Saccharomyces cerevisiae, Assay Type: Mitotic recombination or gene conversion, Assay Code: YEH+, Evaluation Type: Evaluation A (Pre-1980)
  mutagenic call: active; positive
[13]
  mutagenic call: no conclusion

## Oc1cc2cc3ccccc3c3ccc4cccc1c4c23
Species/Cell Type: Chinese hamster lung (V79) cells, Assay Type: Forward gene mutation at the HPRT or ouabain locus, Assay Code: V79-, Evaluation Type: Evaluation A (Pre-1980)
  mutagenic call: inactive; negative
[11]
  call: no conclusion
[7]
  mutagenic call: active; positive
[13]
  mutagenic call: no conclusion

## C1=CC2C3C=CC(C3)C2C1 (configuration not stated)
Species/Cell Type: Saccharomyces cerevisiae, Assay Type: Mitotic recombination or gene conversion, Assay Code: YEH-, Evaluation Type: Evaluation A (Pre-1980)
  mutagenic call: inactive; negative
Species/Cell Type: Salmonella typhimurium (one or more of the five standard strains: TA98, TA100, TA1535, TA1537, and TA1538), Assay Type: Histidine reverse gene mutation, Ames assay, Assay Code: SAL-, Evaluation Type: Evaluation A (Pre-1980)
  mutagenic call: inactive; negative

## C[n+]1c(-c2ccc(N)cc2)c2cc(N)ccc2c2ccc(N)cc21
[3]
  mutagenic call: active; positive

## O=NN(CCCl)C(=O)NCCCCO
Species/Cell Type: Saccharomyces cerevisiae, Assay Type: Mitotic recombination or gene conversion, Assay Code: YEC+, Evaluation Type: Evaluation A (Pre-1980)
  mutagenic call: active; positive

## CCCCc1ccc(C(=O)O)nc1
Species/Cell Type: Bacillus subtilis (H17 vs M45), Assay Type: Rec-assay, spot test, DNA effects (bacterial DNA repair), Assay Code: REW-, Evaluation Type: Evaluation A (Pre-1980)
  mutagenic call: inactive; negative

## Nc1ccnc(=O)[nH]1
[14]
  mutagenic call: no conclusion

## Clc1ccc2ccccc2n1
[13]
  mutagenic call: no conclusion

## c1ccc2c3c(ccc2c1)-c1cccc2cccc-3c12
[12]
  call: active; positive

## O=c1c(O)c(-c2ccc(O)cc2)oc2cc(O)cc(O)c12
[6]
  mutagenic call: active; positive
Species/Cell Type: Nonhuman, Assay Type: Sister-chromatid exchange (SCE) in vitro, Assay Code: SC2+D*, Activation: With metabolic activation, Dose Response: With dose response, Evaluation Type: Evaluation B (Post-1980)
  mutagenic call: active; positive

## Nc1ccc(Cl)cc1N
[12]
  call: active; positive

## CCN(CCCl)CCCNc1c2ccccc2nc2c1ccc1cccnc12
[4]
  mutagenic call: active; positive
